From patent publication US20160296658A1, “NOVEL ACTIVE INGREDIENT IN CICATRIZATION AND USE THEREOF” (LABORATOIRES URGO, priority 2007, published 2016)

System: normal human dermal fibroblasts (NHDF) R9PF2
Assay: NHDF proliferation by incorporation of tritiated thymidine
Format: cell-based
Conditions: dilution in culture medium at 0.011 mg/mL; 48 hours
Experimental: Type: pool of normal human dermal fibroblasts (NHDF) R9PF2
DMEM (Dulbecco's Modified Eagle Medium, Invitrogen 21969035)
Dressings having the size of the wells, prepared as described previously using the elastomeric masses of examples 1 to 5, and also dilutions of the Sepinov EMT 10 copolymer to 0.011 mg/mL and of potassium sucrose octasulfate to 0.00064 mg/mL, were tested.
Effects on Proliferation:
The fibroblasts were seeded into 12-well plates at low density (60% confluence), and then the cells were treated with the dilutions or pieces of dressings were applied to these plates and kept in place by means of a plug (called “test”). A control without dressing, without dilution but with plug was carried out (called “control”).
The cells were then incubated for 24 hours, 48 hours and 72 hours. For each incubation time, tritiated thymidine ([methyl-3H]-thymidine, Amersham TRK 686 2.5 μCi/mL final concentration) was added for the final 24 hours of incubation and then the DNA of the cells of the cell layers was extracted and purified and the radioactivity incorporated into the DNA was counted using a scintillation counter.
The results obtained are expressed as counts per minute (cpm), then as percentage relative to the control according to the following formula:
%control=(Cpmtest/cmpcontrol)×100 […]

O=S(=O)([O-])OC[C@H]1O[C@@](COS(=O)(=O)[O-])(O[C@H]2O[C@H](COS(=O)(=O)[O-])[C@@H](OS(=O)(=O)[O-])[C@H](OS(=O)(=O)[O-])[C@H]2OS(=O)(=O)[O-])[C@@H](OS(=O)(=O)[O-])[C@@H]1OS(=O)(=O)[O-].[K+].[K+].[K+].[K+].[K+].[K+].[K+].[K+] [Potassium sucrose octasulfate, potassium sucrose octasulfate]
NHDF proliferation, % control: 106 % control
